Source: ChEMBL document CHEMBL1156471, “Targeting host cell furin proprotein convertases as a therapeutic strategy against bacterial toxins and viral pathogens” (J Biol Chem, 2007)
Calls of active or inactive are those of the source. The rule behind the calls is not given here.

target: Proprotein convertase subtilisin/kexin type 5 (Homo sapiens, UniProt Q92824); details: not given
Sequence (Q92824 whole entry): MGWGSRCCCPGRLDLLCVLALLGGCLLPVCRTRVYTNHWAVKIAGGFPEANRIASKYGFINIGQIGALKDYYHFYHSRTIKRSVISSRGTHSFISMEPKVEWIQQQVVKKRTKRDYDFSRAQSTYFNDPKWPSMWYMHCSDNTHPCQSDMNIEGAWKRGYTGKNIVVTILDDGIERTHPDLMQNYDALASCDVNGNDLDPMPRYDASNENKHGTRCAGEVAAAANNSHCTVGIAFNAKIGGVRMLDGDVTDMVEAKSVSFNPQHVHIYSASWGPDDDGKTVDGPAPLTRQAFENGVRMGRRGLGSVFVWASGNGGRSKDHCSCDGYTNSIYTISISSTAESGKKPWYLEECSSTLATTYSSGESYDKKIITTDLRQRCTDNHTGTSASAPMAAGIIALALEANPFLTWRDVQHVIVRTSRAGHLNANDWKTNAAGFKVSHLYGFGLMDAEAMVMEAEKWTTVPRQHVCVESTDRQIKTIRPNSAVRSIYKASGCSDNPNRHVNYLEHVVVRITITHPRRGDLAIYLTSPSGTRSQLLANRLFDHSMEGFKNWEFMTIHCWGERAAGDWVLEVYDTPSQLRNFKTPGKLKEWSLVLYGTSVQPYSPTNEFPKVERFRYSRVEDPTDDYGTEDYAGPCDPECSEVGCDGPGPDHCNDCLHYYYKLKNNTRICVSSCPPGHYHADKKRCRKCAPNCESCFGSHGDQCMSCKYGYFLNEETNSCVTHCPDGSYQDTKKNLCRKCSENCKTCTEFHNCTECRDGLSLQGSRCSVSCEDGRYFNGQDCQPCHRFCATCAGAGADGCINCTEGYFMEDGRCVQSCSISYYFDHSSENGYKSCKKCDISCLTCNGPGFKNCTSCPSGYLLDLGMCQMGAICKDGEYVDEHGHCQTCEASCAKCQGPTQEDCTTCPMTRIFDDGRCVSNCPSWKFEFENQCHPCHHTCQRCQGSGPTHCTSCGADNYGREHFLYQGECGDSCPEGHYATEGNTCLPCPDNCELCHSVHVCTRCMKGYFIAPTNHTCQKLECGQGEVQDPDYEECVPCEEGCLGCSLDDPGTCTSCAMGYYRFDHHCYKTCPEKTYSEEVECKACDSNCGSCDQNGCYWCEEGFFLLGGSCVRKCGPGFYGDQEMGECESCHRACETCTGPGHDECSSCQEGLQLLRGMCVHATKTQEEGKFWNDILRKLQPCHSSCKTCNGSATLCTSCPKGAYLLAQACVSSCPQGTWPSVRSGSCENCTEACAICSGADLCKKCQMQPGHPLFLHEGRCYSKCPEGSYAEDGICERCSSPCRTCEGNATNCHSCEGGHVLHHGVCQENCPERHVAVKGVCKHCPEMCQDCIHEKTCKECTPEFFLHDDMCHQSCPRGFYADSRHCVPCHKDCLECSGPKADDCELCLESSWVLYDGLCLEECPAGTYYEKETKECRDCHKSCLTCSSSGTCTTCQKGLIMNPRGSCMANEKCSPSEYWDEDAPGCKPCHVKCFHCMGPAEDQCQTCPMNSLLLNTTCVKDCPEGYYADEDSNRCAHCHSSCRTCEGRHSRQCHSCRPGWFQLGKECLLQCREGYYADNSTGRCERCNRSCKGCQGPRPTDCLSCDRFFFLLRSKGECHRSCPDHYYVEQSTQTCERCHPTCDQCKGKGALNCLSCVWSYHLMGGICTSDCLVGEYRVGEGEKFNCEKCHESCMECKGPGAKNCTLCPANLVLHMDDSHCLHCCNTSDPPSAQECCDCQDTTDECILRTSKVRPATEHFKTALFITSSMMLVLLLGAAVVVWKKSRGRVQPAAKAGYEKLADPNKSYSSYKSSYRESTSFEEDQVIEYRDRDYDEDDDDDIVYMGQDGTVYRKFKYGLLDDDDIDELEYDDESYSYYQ

Row | Substance | Ki [nM]
1 | H-TPQRARRRKKRF-OH | 806
2 | H-TPQRARRRKKRT-OH | 188
3 | H-TPQRARRRKKRW-OH | 433
4 | H-TPQRARRRKKRY-OH | 649

system: U-251; experiment: Inhibition of proprotein convertase-mediated anthrax protective antigen-83 processing in human U251 cells at 20 uM by Western blot; format: cell-based; details: Bacillus anthracis

Row | Substance | Activity
5 | H-TPRARRRKKRF-NH2 [listing 1 of 2 here] | Active
6 | H-TPRARRRKKRF-OH | Active
7 | H-TPRARRRKKRT-OH | Active
8 | H-TPRARRRKKRW-NH2 | Active
9 | H-TPRARRRKKRW-OH [listing 1 of 2 here] | Active
10 | H-TPRARRRKKRY-NH2 | Active
11 | H-TPRARRRKKRY-OH [listing 1 of 2 here] | Active

target: T1, Proprotein convertase subtilisin/kexin type 6 (Rattus norvegicus, UniProt Q63415); details: not given
T1 sequence (Q63415 whole entry): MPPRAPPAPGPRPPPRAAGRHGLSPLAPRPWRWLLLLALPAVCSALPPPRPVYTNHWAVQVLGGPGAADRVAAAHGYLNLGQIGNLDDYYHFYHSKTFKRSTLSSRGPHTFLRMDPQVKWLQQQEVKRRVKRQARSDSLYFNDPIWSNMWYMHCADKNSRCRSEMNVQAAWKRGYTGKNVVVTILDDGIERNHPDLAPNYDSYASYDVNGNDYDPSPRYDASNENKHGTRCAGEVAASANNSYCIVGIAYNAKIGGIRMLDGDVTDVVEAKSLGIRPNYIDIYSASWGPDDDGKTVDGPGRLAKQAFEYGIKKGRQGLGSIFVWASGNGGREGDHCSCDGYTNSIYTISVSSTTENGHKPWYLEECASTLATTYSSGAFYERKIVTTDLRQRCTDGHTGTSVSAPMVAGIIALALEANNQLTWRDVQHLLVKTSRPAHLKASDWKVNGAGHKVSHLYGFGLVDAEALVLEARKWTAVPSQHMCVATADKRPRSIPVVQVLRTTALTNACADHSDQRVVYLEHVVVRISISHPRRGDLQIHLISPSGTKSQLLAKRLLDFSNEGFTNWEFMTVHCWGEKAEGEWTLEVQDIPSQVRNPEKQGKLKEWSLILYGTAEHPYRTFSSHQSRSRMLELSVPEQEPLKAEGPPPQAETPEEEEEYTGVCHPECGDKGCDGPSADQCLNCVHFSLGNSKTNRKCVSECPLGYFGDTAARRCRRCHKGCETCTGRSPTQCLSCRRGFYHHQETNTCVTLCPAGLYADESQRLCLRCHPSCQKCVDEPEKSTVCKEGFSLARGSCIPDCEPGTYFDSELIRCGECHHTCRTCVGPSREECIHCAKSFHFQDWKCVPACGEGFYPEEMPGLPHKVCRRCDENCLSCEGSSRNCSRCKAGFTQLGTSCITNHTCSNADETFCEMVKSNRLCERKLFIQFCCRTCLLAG

Row | Substance | Ki [nM]
12 | H-TPQRARRRKKRF-OH | 602
13 | H-TPQRARRRKKRT-OH | 296
14 | H-TPQRARRRKKRW-OH | 192
15 | H-TPQRARRRKKRY-OH | 1020

target: T2, Proprotein convertase subtilisin/kexin type 4 (Homo sapiens, UniProt Q6UW60); details: not given
T2 sequence (Q6UW60 whole entry): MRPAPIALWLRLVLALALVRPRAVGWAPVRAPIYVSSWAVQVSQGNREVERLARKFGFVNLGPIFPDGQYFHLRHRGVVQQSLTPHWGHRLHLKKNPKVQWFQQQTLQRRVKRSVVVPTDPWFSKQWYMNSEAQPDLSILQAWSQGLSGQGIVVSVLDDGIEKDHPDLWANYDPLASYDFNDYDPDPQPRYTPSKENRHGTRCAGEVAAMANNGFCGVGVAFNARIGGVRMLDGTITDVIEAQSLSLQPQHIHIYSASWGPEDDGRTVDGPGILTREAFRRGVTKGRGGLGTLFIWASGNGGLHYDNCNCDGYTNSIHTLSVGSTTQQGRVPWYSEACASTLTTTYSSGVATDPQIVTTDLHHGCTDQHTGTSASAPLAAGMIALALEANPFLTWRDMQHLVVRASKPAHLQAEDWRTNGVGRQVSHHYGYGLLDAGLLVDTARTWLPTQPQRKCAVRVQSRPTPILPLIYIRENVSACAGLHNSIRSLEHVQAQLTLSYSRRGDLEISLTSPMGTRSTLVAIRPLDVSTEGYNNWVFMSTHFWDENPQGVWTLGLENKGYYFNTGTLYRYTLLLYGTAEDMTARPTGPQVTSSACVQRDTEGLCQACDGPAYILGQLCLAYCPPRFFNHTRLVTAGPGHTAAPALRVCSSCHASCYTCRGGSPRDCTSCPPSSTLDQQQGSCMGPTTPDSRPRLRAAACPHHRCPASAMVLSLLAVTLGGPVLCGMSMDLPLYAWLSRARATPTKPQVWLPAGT

Row | Substance | Ki [nM]
16 | H-TPQRARRRKKRF-OH | 772
17 | H-TPQRARRRKKRT-OH | 515
18 | H-TPQRARRRKKRW-OH | 952
19 | H-TPQRARRRKKRY-OH | 624

target: Furin (Homo sapiens, UniProt P09958); details: not given
Sequence (P09958 whole entry): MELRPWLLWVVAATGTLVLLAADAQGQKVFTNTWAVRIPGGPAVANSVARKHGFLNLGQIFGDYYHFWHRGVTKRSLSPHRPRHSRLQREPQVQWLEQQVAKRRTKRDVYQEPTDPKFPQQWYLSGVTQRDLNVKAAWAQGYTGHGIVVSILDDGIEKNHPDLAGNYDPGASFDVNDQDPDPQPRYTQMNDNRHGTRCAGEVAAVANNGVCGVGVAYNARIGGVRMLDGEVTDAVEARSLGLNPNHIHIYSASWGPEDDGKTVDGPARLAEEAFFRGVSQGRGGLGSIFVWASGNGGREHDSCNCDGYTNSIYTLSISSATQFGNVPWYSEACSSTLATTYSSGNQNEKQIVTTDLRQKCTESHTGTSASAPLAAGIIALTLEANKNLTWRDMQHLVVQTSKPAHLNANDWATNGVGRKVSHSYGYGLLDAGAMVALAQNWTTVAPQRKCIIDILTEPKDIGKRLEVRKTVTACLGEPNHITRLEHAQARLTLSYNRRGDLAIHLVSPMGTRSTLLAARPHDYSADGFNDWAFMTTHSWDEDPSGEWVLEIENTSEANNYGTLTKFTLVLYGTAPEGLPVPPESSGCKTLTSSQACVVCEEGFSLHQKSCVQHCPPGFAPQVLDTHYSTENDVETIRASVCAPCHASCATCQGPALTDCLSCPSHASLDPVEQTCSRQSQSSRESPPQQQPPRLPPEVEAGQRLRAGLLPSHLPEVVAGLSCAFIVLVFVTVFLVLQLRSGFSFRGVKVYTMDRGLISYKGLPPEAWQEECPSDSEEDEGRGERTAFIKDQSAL

Row | Substance | Ki [nM]
20 | H-TPQRARRRKKRF-OH | 38
21 | H-TPQRARRRKKRT-OH | 33
22 | H-TPQRARRRKKRW-OH | 34
23 | H-TPQRARRRKKRY-OH | 47
24 | H-TPRAARRKKR-OH | > 100
25 | H-TPRAARRKKRG-OH | > 100
26 | H-TPRAARRKKRV-OH | > 100
27 | H-TPRARRRKKRA-NH2 | > 100
28 | H-TPRARRRKKRA-OH | > 100
29 | H-TPRARRRKKRD-OH | 56
30 | H-TPRARRRKKRE-NH2 | > 100
31 | H-TPRARRRKKRE-OH | > 100
32 | H-TPRARRRKKRF-NH2 [listing 2 of 2 here] | 38
33 | H-TPRARRRKKRF-OH | 38
34 | H-TPRARRRKKRG-NH2 | 57
35 | H-TPRARRRKKRG-OH | 57
36 | H-TPRARRRKKRH-NH2 | > 100
37 | H-TPRARRRKKRH-OH | > 100
38 | H-TPRARRRKKRI-OH | 30
39 | H-TPRARRRKKRK-NH2 | > 100
40 | H-TPRARRRKKRK-OH | > 100
41 | H-TPRARRRKKRN-NH2 | 45
42 | H-TPRARRRKKRN-OH | 45
43 | H-TPRARRRKKRP-NH2 | > 100
44 | H-TPRARRRKKRP-OH | > 100
45 | H-TPRARRRKKRQ-NH2 | 47
46 | H-TPRARRRKKRQ-OH | 47
47 | H-TPRARRRKKRR-NH2 | > 100

Row | Substance | Ki [nM]
48 | H-TPRARRRKKRR-OH | > 100
49 | H-TPRARRRKKRS-NH2 | > 100
50 | H-TPRARRRKKRS-OH | > 100
51 | H-TPRARRRKKRT-OH | 23
52 | H-TPRARRRKKRV-NH2 | 80
53 | H-TPRARRRKKRV-OH | 80
54 | H-TPRARRRKKRW-NH2 | 59
55 | H-TPRARRRKKRW-OH [listing 2 of 2 here] | 59
56 | H-TPRARRRKKRY-NH2 | 53
57 | H-TPRARRRKKRY-OH [listing 2 of 2 here] | 53
58 | H-TPRCRRRKKRG-NH2 | > 100
59 | H-TPRCRRRKKRG-OH | > 100
60 | H-TPRDRRRKKRG-NH2 | > 100
61 | H-TPRDRRRKKRG-OH | > 100
62 | H-TPREAAAKKR-OH | > 100
63 | H-TPREAAAKKRG-OH | > 100
64 | H-TPREAAAKKRV-OH | > 100
65 | H-TPREAARKKR-OH | > 100
66 | H-TPREAARKKRG-OH | > 100
67 | H-TPREAARKKRV-OH | > 100
68 | H-TPREARRKKR-OH | > 100
69 | H-TPREARRKKRG-NH2 | > 100
70 | H-TPREARRKKRG-OH | > 100
71 | H-TPREARRKKRV-OH | > 100
72 | H-TPRERAAKKR-OH | > 100
73 | H-TPRERAAKKRG-OH | > 100
74 | H-TPRERAAKKRV-OH | > 100

target: T3, Proprotein convertase subtilisin/kexin type 7 (Homo sapiens, UniProt Q16549); details: not given
T3 sequence (Q16549 whole entry): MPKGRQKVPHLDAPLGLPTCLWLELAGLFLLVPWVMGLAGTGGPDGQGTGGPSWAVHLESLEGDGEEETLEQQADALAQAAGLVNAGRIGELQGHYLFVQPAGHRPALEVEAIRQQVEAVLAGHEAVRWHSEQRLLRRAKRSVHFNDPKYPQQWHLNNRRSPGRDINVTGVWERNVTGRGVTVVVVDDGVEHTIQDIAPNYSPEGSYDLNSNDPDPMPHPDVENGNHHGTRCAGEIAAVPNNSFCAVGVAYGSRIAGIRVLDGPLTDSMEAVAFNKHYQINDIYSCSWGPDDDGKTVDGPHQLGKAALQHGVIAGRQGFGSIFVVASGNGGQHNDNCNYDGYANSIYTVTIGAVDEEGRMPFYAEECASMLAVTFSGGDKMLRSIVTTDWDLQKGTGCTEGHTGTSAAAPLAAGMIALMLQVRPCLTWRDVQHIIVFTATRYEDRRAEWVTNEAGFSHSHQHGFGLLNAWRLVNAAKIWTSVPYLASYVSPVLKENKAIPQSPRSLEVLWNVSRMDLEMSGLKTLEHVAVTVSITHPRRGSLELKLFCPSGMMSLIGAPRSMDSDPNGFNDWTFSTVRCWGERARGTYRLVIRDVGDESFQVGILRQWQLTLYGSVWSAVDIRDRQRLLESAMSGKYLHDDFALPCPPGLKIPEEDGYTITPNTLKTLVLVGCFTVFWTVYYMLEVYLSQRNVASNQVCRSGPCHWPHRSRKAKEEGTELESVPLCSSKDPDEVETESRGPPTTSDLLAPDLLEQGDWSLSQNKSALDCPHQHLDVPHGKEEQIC

Row | Substance | Ki [nM]
75 | H-TPQRARRRKKRF-OH | 1130
76 | H-TPQRARRRKKRT-OH | 206
77 | H-TPQRARRRKKRW-OH | 172
78 | H-TPQRARRRKKRY-OH | 1220
